From patent publication US20190008160A1, “BACILLUS THURINGIENSIS SUBSP. KURSTAKI AND BACILLUS THURINGIENSIS SUBSP. AIZAWAI COMBINATION FORMULATIONS” (Valent BioSciences Corporation, priority 2015, published 2019)

Legend:
[1] = test system: insect species with known resistance to chlorantraniliprole; test: Example 6 plot study, yield with insect species resistant to chlorantraniliprole; assay type: in vivo; conditions: rate 30.9 g a.i/ha
Protocol: (§1) A study was conducted to determine the effect that a synergistic weight ratio of Bacillus thuringiensis subsp. kurstaki and Bacillus thuringiensis subsp. aizawai would have on insect species with known resistance to the commonly used insecticide, chlorantraniliprole. Prevathon™ (available from DuPont™) is a 5% suspension concentrate of chlorantraniliprole and was used as the source of chlorantraniliprole in the following two studies. Sympatico™ emulsifiable suspension concentrate (available from Valent BioSciences Corporation) was used as the source of Bacillus thuringiensis subsp. aizawai and Bacillus thuringiensis kurstaki. Sympatico™ contains about a 60:40 weight ratio of Bacillus thuringiensis subsp. kurstaki fermentation solids, spores and toxins to Bacillus thuringiensis subsp. aizawai fermentation solids, spores and toxins. The plots were planted with cabbage and naturally infested with populations of diamondback moth (Plutella xylostella) and cabbage cluster caterpillar (Crocidolomia pavonana) that were known to be resistant to chlorantraniliprole.
Another study was conducted to determine the effect that a synergistic weight ratio of Bacillus thuringiensis subsp. kurstaki and Bacillus thuringiensis subsp. aizawai would have on insect species with known resistance to the commonly used insecticide, chlorantraniliprole.

[2] = test system: diamondback moth (Plutella xylostella) and cabbage cluster caterpillar (Crocidolomia pavonana) known to be resistant to chlorantraniliprole; test: Example 5 cabbage plot study, yield under chlorantraniliprole-resistant pest infestation; assay type: in vivo, Plutella xylostella; Crocidolomia pavonana (on cabbage); conditions: rate 30.9 g/ha; cabbage plots
Protocol: as §1

SMILES: CNC(=O)c1cc(Cl)cc(C)c1NC(=O)c1cc(Br)nn1-c1ncccc1Cl [Chlorantraniliprole]
- Yield [1]: 88.3 kg/plot
- Yield [2]: 67.0 kg/plot
